In patent US10435333B2, “High temperature amine-stabilized DCD and/or alkyl thiophosphoric triamide solvent systems and use in agricultural applications” (RHODIA OPERATIONS, priority 2015, dated 2019):

Tests used:
[1] = visual physical stability of NBPT/DMSO formulation with 2 wt % amine stabilizer at high temperature (FIG. 1); type: physicochemical; settings: 2 wt % amine stabilizer in NBPT/DMSO formulation, greater than 45° C.
Method: FIG. 1 is a photograph of Several amines or amides were tested to check if they can stabilize NBPT degradation at high temperatures (at greater than 45° C.) in NBPT/DMSO formulation. Each sample was prepared with 2% of amine stabilizer added.
Referring to FIG. 1, Several amines or amides were tested to check if they can stabilize NBPT degradation at high temperatures (at greater than 45° C.) in NBPT/DMSO formulation. Each sample was prepared with 2 wt % of amine stabilizer added.

[2] = degradation of NBPT at high temperature (colour change, sludge/precipitate); type: physicochemical
Method: Another problem is that certain nitrification inhibitors and/or urease inhibitors degrade at high temperatures. […] Often times temperatures in agricultural fields (e.g., corn fields, wheat fields, etc.) reach in excess of 35° C. and sometimes can reach up to 45° C. or higher. For example, at 45° C. […] Thus, it is also desirable to have solvent systems containing nitrification inhibitors and/or urease inhibitors that are stabilized at high temperatures, such as those unitized in hot climates or weather. This invention addresses the addition of stabilizers to prolong the chemical and physical stability of formulated liquid agricultural compositions containing (i) one or more nitrification inhibitors, (ii) one or more urease inhibitors or (iii) a combination of both (i) and (ii). In one embodiment, the urease inhibitor is NBPT.

[3] = cited from earlier work

NCCO [monoethanolamine]
physical stability by visual observation (appearance) [1]: better physical stability (less dark appearance)

CCCCNP(N)(N)=S [NBPT, N-(n-butyl)-thiophosphoric triamide]
appearance after exposure to high heat ([2]; 45° C., NBPT formulated in different solvents, days to weeks): changes color in days from colorless to a darker green/brown, followed by sludge/precipitate formation after weeks
degradation at higher temperature ([2]; typically above 45° C.): degrades rapidly

N#CNC(=N)N [Dicyandiamide, 2-cyanoguanidine]
solubility in water [3]: about 41 g/l
